Reference: patent US20240131168A1, “NAPHTHALENE RING-CONTAINING COMPOUND, PHARMACEUTICAL COMPOSITION CONTAINING SAME, AND USE THEREOF” (JIANGSU YAHONG MEDITECH CO., LTD., priority 2021, published 2024)
Read-outs that look alike come from different tables or passages of the source.

Columns and labels:
Type in all cases: cell-based
[1] = test system: MDA-MB-231; test: CellTiter-Glo cell proliferation inhibition, MDA-MB-231; conditions: Homo sapiens, MDA-MB-231 (CTG), starting concentration 10 μM; for inhibition at up to 10 µM: read-out: IH % max (maximum inhibition percentage)
Description: (§1) 1. Cell line • (1) Breast cancer cell lines and their culture media: • MCF-7 (ATCC; Cat. No.: HTB-22), a Luminal A breast cancer cell; • TamR-MCF-7 (ATCC; Cat. No.: CRL-3435), a breast cancer cell; • MCF-7 ER^D538G: a Luminal A breast cancer cell obtained by constructing MCF-7 (ATCC; Cat. No.: HTB-22) using CRISPR-Cas9 gene editing technology; • MCF-7 ER^Y537S: a Luminal A breast cancer cell obtained by constructing MCF-7 (ATCC; Cat. No.: HTB-22) using CRISPR-Cas9 gene editing technology; • MDA-MB-231: (manufacturer: Nanjing CoBioer Biosciences Co., Ltd.), a triple-negative breast cancer cell; • MDA-MB-468: (manufacturer: Nanjing CoBioer Biosciences Co., Ltd.), a triple-negative breast cancer cell.
(§2) Herein, the culture medium of MCF-7, TamR-MCF-7, MCF-7 ER^D538G, and MCF-7 ER^Y537S was EMEM; • the culture medium of MDA-MB-231 and MDA-MB-468 was DMEM.
(§3) 2. Reagents • Culture medium EMEM (Gibco, 1964507) • Culture medium DMEM (Gibco, 12430-054) • Fetal bovine serum (Gibco, 10091148) • Penicillin-streptomycin double antibody (Gibco, S110JV) • DPBS (Gibco, 14190-144) • CellTiter-Glo® assay kit (Promega, G7573) • Trypsin (0.25%) (Gibco, 25200-056) • DMSO (Sigma, D2650)
(§4) 3. Instruments • Biosafety cabinet (AIRTECH, BSC-1300A II) • Automated cell counter (Life Technologies, countess II) • Multifunctional microplate reader (Biotek, H1FM) • Orbital shaker (Hangzhou Allsheng Instruments Co., Ltd., OS-100) • XLFIT 5.3 (Inforstack Shanghai Co., Ltd.)
(§5) For this test method, the following experiments were performed in a biosafety cabinet, with the specific steps as follows: • (1) Cells were inoculated in a 96-well plate. One day later, the previous culture medium was poured off, 5 mL of DPBS was added to wash the cells, and then DPBS was pipetted and discarded. An appropriate amount of trypsin was then added. The plate was digested in a 37° C., 5% CO2 cell incubator for about 2 to 5 minutes and then taken out. Anew corresponding culture medium was added, and pipetted up and down to resuspend the cells evenly. The cells were then counted using an automated cell counter. • (2) Each cell was inoculated in columns 1 to 11 of a 96-well plate (Corning, Cat. No.: 3610) at a density of 1,000 or 2,000 cells per well in 100 μL of culture medium, and 100 μL of the corresponding culture medium without cells was added to the wells in column 12. The plate was then placed in a 37° C., 5% CO2 incubator for 24 hours. • (3) The compound of the present disclosure and the control drug fulvestrant (Selleck; Cat. No.: S1191) were then 4-fold serially diluted to 10 dose points starting at 10 μM. 10 μL of the serially diluted compound was pipetted and added to 100 μL of cells in columns 1 to 10, and 10 μL of the corresponding culture medium containing 0.33 v % DMSO was added to both columns 11 and 12. The plate was incubated in a 37° C., 5% CO2 incubator for 6 days or 72 hours (Note: column 11 was used as a MAX well with cells but without compound; column 12 was used as a MIN well without cells […]). • (4) The cell viability detection reagent in the CellTiter-Glo® assay kit was then added to the 96-well plate at 50 μL per well according to the instructions, and shaken on an orbital shaker in the dark for 5 to 10 minutes. The cell viability was then measured using a multifunctional microplate reader. Finally, the inhibition of cell proliferation by the compound of the present disclosure was plotted by XLFIT software, and the IC50 value (half inhibitory concentration) and the IH % max (maximum inhibition percentage) of the compound of the present disclosure were calculated.
(§6) Compounds D64 to D69 were tested for MDA-MB-231 (CTG) and MDA-MB-468 (CTG) with an incubation time of 72 hours in the incubator.

[2] = test system: MDA-MB-468; test: CellTiter-Glo cell proliferation inhibition, MDA-MB-468; conditions: Homo sapiens, MDA-MB-468 (CTG), starting concentration 10 μM; for inhibition at up to 10 µM: read-out: IH % max (maximum inhibition percentage)
Description: as §1, §2, §3, §4, §5, §6

[3] = test system: TamR-MCF-7; test: CellTiter-Glo cell proliferation inhibition, TamR-MCF-7; conditions: 144 h; TamR-MCF-7 (CTG), 6 days, starting concentration 10 μM; read-out: IH % max (maximum inhibition percentage)
Description: as §1, §2, §3, §4, §5

[4] = test system: MCF-7 ER^D538G; test: CellTiter-Glo cell proliferation inhibition, MCF-7 ER^D538G; conditions: Homo sapiens, MCF7, 144 h, MCF-7 ER^D538G (CTG), 6 days, starting concentration 10 μM; for inhibition at up to 10 µM: read-out: IH % max (maximum inhibition percentage)
Description: as §1, §2, §3, §4, §5

[5] = test system: MCF-7; test: CellTiter-Glo cell proliferation inhibition, MCF-7 (Effect Example 2); conditions: Homo sapiens, MCF7, 144 h; MCF-7 (CTG), 6 days, starting concentration 10 μM; read-out: IH % max (maximum inhibition percentage)
Description: as §1, §2, §3, §4, §5

[6] = test system: MCF-7 ER^Y537S; test: CellTiter-Glo cell proliferation inhibition, MCF-7 ER^Y537S; conditions: Homo sapiens, MCF7, 144 h; MCF-7 ER^Y537S (CTG), 6 days, starting concentration 10 μM; read-out: IH % max (maximum inhibition percentage)
Description: as §1, §2, §3, §4, §5

[7] = incubation time 72 hours (D64 to D69)

SMILES	IC50 [1, 7]	IC50 [2, 7]	IC50 [4]	inhibition at up to 10 µM [1, 7]	inhibition at up to 10 µM [2, 7]	inhibition at up to 10 µM [3]	inhibition at up to 10 µM [4]	inhibition at up to 10 µM [5]	inhibition at up to 10 µM [6]	inhibition at up to 10 µM ([2]; 144 h, 6 days)	inhibition at up to 10 µM ([1]; 144 h, 6 days)
CNC(=O)c1ccc(-c2ccc3ccccc3c2Oc2ccc(OC(=O)N3CCN(c4ccc5c(c4)CN(C4CCC(=O)NC4=O)C5=O)CC3)cc2)cc1 (stereo not shown) [Compound D69, 4-((2-(4-(methylcarbamoyl)phenyl)naphthalen-1-yl)oxy)phenyl 4-(2-(2,6-dioxopiperidin-3-yl)-1-oxoisoindolin-5-yl)piperazine-1-carboxylate]	2.2 nM	2.7 nM	–	91.7%	92.8%	–	–	–	–	–	–
CCN(CCOc1ccc(Oc2c(-c3ccc(S(C)(=O)=O)cc3)ccc3cc(O)ccc23)cc1)CC(=O)N1CCN(c2ccc3c(c2)CN(C2CCC(=O)NC2=O)C3=O)CC1 (stereo not shown) [Compound D7, 3-(5-(4-(N-ethyl-N-(2-(4-((6-hydroxy-2-(4-(methylsulfonyl)phenyl)naphthalen-1-yl)oxy)phenoxy)ethyl)glycyl)piperazin-1-yl)-1-oxoisoindolin-2-yl)piperidine-2,6-dione]	–	–	–	–	–	47%	40%	49%	60%	63%	–
CCN(CCOCCOCCNc1cccc2c1CN(C1CCC(=O)NC1=O)C2=O)CCOc1ccc(Oc2c(-c3ccc(S(C)(=O)=O)cc3)ccc3cc(O)ccc23)cc1 (stereo not shown) [Compound D26, 3-(4-((2-(2-(2-(ethyl(2-(4-((6-hydroxy-2-(4-(methylsulfonyl)phenyl)naphthalen-1-yl)oxy)phenoxy)ethyl)amino)ethoxy)ethoxy)ethyl)amino)-1-oxoisoindolin-2-yl)piperidine-2,6-dione]	–	–	–	–	–	35%	75%	55%	43%	37%	–
CCN(CCOCCOCCOCCNc1cccc2c1C(=O)N(C1CCC(=O)NC1=O)C2=O)CCOc1ccc(Oc2c(-c3ccc(S(C)(=O)=O)cc3)ccc3cc(O)ccc23)cc1 (stereo not shown) [Compound D39, 2-(2,6-dioxopiperidin-3-yl)-4-((3-ethyl-1-(4-((6-hydroxy-2-(4-(methylsulfonyl)phenyl)naphthalen-1-yl)oxy)phenoxy)-6,9,12-trioxa-3-azatetradecan-14-yl)amino)isoindoline-1,3-dione]	–	–	158 nM	–	–	32%	73%	35%	48%	51%	–
CN(C)C(=O)c1ccc(-c2ccc3ccccc3c2Oc2ccc(OCCN3CCN(c4ccc5c(c4)CN(C4CCC(=O)NC4=O)C5=O)CC3)cc2)cc1 (stereo not shown) [Compound D68, 4-(1-(4-(2-(4-(2-(2,6-dioxopiperidin-3-yl)-1-oxoisoindolin-5-yl)piperazin-1-yl)ethoxy)phenoxy)naphthalen-2-yl)-N,N-dimethylbenzamide]	44.2 nM	35.4 nM	–	71.5%	59.3%	–	–	–	–	–	–
CS(=O)(=O)c1ccc(-c2ccc3cc(O)ccc3c2Oc2ccc(N3CCN(CC(=O)N4CCN(c5ccc6c(c5)CN(C5CCC(=O)NC5=O)C6=O)CC4)CC3)cc2)cc1 (stereo not shown) [Compound D12, 3-(5-(4-(2-(4-(4-((6-hydroxy-2-(4-(methylsulfonyl)phenyl)naphthalen-1-yl)oxy)phenyl)piperazin-1-yl)acetyl)piperazin-1-yl)-1-oxoisoindolin-2-yl)piperidine-2,6-dione]	–	–	761 nM	–	–	–	68%	45%	–	–	37%
CCN(CCOCCOCCN1CCN(c2cccc3c2CN(C2CCC(=O)NC2=O)C3=O)CC1)CCOc1ccc(Oc2c(-c3ccc(S(C)(=O)=O)cc3)ccc3cc(O)ccc23)cc1 (stereo not shown) [Compound D40]	–	–	–	–	–	31%	72%	34%	61%	71%	–

The next lines start with results.

IC50 [1, 7]	IC50 [2, 7]	IC50 [4]	SMILES	inhibition at up to 10 µM [1, 7]	inhibition at up to 10 µM [2, 7]	inhibition at up to 10 µM [3]	inhibition at up to 10 µM [4]	inhibition at up to 10 µM [5]	inhibition at up to 10 µM [6]	inhibition at up to 10 µM ([2]; 144 h, 6 days)	inhibition at up to 10 µM ([1]; 144 h, 6 days)
3.7 nM	4.4 nM	–	CN(C)C(=O)c1ccc(-c2ccc3ccccc3c2Oc2ccc(OC(=O)N3CCN(c4ccc5c(c4)CN(C4CCC(=O)NC4=O)C5=O)CC3)cc2)cc1 (stereo not shown) [Compound D67, 4-((2-(4-(dimethylcarbamoyl)phenyl)naphthalen-1-yl)oxy)phenyl 4-(2-(2,6-dioxopiperidin-3-yl)-1-oxoisoindolin-5-yl)piperazine-1-carboxylate]	79.2%	83.6%	–	–	–	–	–	–
1.4 nM	2.2 nM	–	CS(=O)(=O)c1ccc(-c2ccc3ccccc3c2Oc2ccc(OC(=O)N3CCN(c4ccc5c(c4)CN(C4CCC(=O)NC4=O)C5=O)CC3)cc2)cc1 (stereo not shown) [Compound D66, 4-((2-(4-(methylsulfonyl)phenyl)naphthalen-1-yl)oxy)phenyl 4-(2-(2,6-dioxopiperidin-3-yl)-1-oxoisoindolin-5-yl)piperazine-1-carboxylate]	85.4%	90.6%	–	–	–	–	–	–
9.8 nM	19.3 nM	–	CNC(=O)c1ccc(-c2ccc3cc(O)ccc3c2Oc2ccc(OCCN3CCN(c4ccc5c(c4)CN(C4CCC(=O)NC4=O)C5=O)CC3)cc2)cc1 (stereo not shown) [Compound D64, 4-(1-(4-(2-(4-(2-(2,6-dioxopiperidin-3-yl)-1-oxoisoindolin-5-yl)piperazin-1-yl)ethoxy)phenoxy)-6-hydroxynaphthalen-2-yl)-N-methylbenzamide]	79.8%	87%	–	–	–	–	–	–
3.6 nM	29 nM	–	O=C1CCC(N2Cc3cc(N4CCN(CCOc5ccc(Oc6c(-c7ccc(C(=O)N8CCCC8)cc7)ccc7cc(O)ccc67)cc5)CC4)ccc3C2=O)C(=O)N1 (stereo not shown) [Compound D65, 3-(5-(4-(2-(4-((6-hydroxy-2-(4-(pyrrolidine-1-carbonyl)phenyl)naphthalen-1-yl)oxy)phenoxy)ethyl)piperazin-1-yl)-1-oxoisoindolin-2-yl)piperidine-2,6-dione]	83.6%	83.6%	–	–	–	–	–	–
